According to patent US10195147B1, “Dry powder compositions with magnesium stearate” (OTITOPIC INC., priority 2017, dated 2019):
“And” between values parts separate entries of the source, which are not always exact repeats. Equal values may be shown once.

Columns and labels:
Assay type in all cases: physicochemical
[1] = Particle size distribution by Spraytec using low resistance device; details: 90 L/min, 2.7 second actuation, 5 tests
Procedure: Particle size distribution of ASA/MgST dry powder composition with 0.5%, 1%, 5%, and 10% w/w MgST, spray-dried Aspirin 85%/Leucine 15% Formulation (036 or 36)>Aspirin 95%/Leucine 5% Formulation (046 or 46), and micronized ASA were measured by Spraytec using low resistance device, at 90 L/min flow rate with 2.7 second actuation time with a step of device/mouthpiece/USP/throat/IC/DUSA, and 5 tests for each composition (Table 5E).

[2] = NGI data of the NGI v. Spraytec comparison; details: Table 5F
[3] = Colloid-probe atomic force microscopy, force of cohesion; details: five drug probes per formulation against smooth crystalline aspirin surface
Source text: Colloid-probe atomic force microscopy studies (AFM) was used to measure the cohesive surface interfacial forces (FIG. 6). Five individual particles from each of powder formulation was attached to tipless cantilevers. These were designated as drug probes, which were then interacted with a smooth surface of crystalline aspirin. In this way, it was possible to measure the force of cohesion of the particles of the different formulations (FIG. 6), which followed the following rank order: […]

% V < 5 μm [1]: 54.7 (3.15) %
% V < 10 μm [1]: 88.99 (2.05) %
Dv(10) [1]: 1.9 (0.08) μm
Dv(50) [1]: 4.63 (0.24) μm and 4.62 (0.24) μm
Dv(90) [1]: 10.32 (0.65) μm
NGI FPF [2]: 20.71%
NGI MMAD [2]: 4.86 μm
SMILES: CC(=O)Oc1ccccc1C(=O)O [Micronized ASA, acetylsalicylic acid]
force of cohesion, rank order [3]: >ASA co-micronised with 0.5% magnesium stearate
